Biological target: Complement factor D (Homo sapiens, UniProt P00746)
Assay: Human Factor D Assay
Method: Human Factor D (purified from human serum, Complement Technology, Inc.) at 80 nM final concentration is incubated with test compound at various concentrations for 5 min at room temperature in 50 mM Tris, 1M NaCl, pH 7.5. A synthetic substrate Z-L-Lys-SBzl and DTNB (Ellman's reagent) are added to final concentrations of 100 μM each. […] IC50 values are calculated by nonlinear regression of complement Factor D reaction rates as a function of test compound concentration.

Complement factor D, sequence (P00746 whole entry): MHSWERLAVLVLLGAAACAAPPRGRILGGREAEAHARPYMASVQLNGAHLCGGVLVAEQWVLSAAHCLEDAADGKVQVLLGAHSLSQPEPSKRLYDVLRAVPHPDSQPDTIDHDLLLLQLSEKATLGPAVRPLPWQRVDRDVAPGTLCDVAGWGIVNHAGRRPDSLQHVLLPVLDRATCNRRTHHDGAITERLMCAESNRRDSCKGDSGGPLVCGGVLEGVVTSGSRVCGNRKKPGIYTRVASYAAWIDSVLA

CC(=O)c1nn(CC(=O)N2C[C@H](F)C[C@H]2C(=O)NC2CCN(C(=O)c3cn[nH]c3)CC2)c2ccc(-c3cnc(C)nc3)cc12 [US11407738, Example 00330]
IC50: in the range around 5.5 µM
